In brackets after ≈: the same amount, converted by molar mass. Where two headings read alike, the source gives them in different places. Where a SMILES comes first, the peptide text is derived from it.
How the values were obtained:
[1] = first concentration that prohibits growth by OD at 24 hours, Table 1

CC[C@H](C)[C@H](NC(=O)CNC(=O)[C@@H](NC(=O)[C@H](CCCCN)NC(=O)[C@H](CCCCN)NC(=O)[C@H](Cc1ccccc1)NC(=O)[C@H](CC(C)C)NC(=O)[C@H](CCCCN)NC(=O)[C@H](Cc1c[nH]c2ccccc12)NC(=O)[C@@H](N)CCCCN)[C@@H](C)CC)C(=O)NCC(=O)N[C@@H](CCCCN)C(=O)N[C@@H](Cc1ccccc1)C(=O)N[C@@H](CC(C)C)C(=O)N[C@@H](Cc1c[nH]cn1)C(=O)N[C@@H](CO)C(=O)N[C@@H](C)C(=O)N[C@@H](CCCCN)C(=O)N[C@@H](CCCCN)C(=O)N[C@@H](Cc1ccccc1)C(=O)O [Cec A Mag 2] (H-KWKLFKKIGIGKFLHSAKKF-OH; N-terminus and C-terminus assumed)
MIC E. coli (Escherichia coli; [1]): 32 µg/mL (≈ 13.3 µM)
MIC B. cereus (B. cereus): + (key: +: MIC greater than 256 ug/mL; ++: MIC greater than 128 ug/mL, not sufficiently soluble to test as 256 ug/mL)

CC[C@H](C)[C@H](NC(=O)CNC(=O)[C@H](CCC(=O)O)NC(=O)[C@H](CO)NC(=O)[C@@H](NC(=O)[C@H](CCCNC(=N)N)NC(=O)[C@H](CCCCN)NC(=O)[C@H](CCCCN)NC(=O)[C@H](C)NC(=O)[C@H](CO)NC(=O)[C@H](CC(N)=O)NC(=O)[C@H](CCC(=O)O)NC(=O)[C@H](CC(C)C)NC(=O)[C@H](CCCCN)NC(=O)[C@H](CCCCN)NC(=O)[C@H](C)NC(=O)[C@@H](NC(=O)[C@H](CCCCN)NC(=O)[C@H](CO)NC(=O)[C@H](CC(C)C)NC(=O)[C@H](Cc1c[nH]c2ccccc12)NC(=O)[C@@H](N)CO)[C@@H](C)O)[C@@H](C)CC)C(=O)N[C@@H](C)C(=O)N[C@H](C(=O)N[C@@H](C)C(=O)N[C@H](C(=O)N[C@@H](CCC(N)=O)C(=O)NCC(=O)NCC(=O)N1CCC[C@H]1C(=O)N[C@@H](CCCNC(=N)N)C(=O)O)[C@@H](C)CC)[C@@H](C)CC [Cecropin P1] (H-SWLSKTAKKLENSAKKRISEGIAIAIQGGPR-OH; N-terminus and C-terminus assumed)
MIC E. coli (Escherichia coli; [1]): 2 µg/mL (≈ 0.599 µM)
MIC B. cereus (B. cereus): + (key: +: MIC greater than 256 ug/mL; ++: MIC greater than 128 ug/mL, not sufficiently soluble to test as 256 ug/mL)

CC[C@H](C)[C@H](NC(=O)CN)C(=O)NCC(=O)N[C@@H](CCCCN)C(=O)N[C@@H](Cc1ccccc1)C(=O)N[C@@H](CC(C)C)C(=O)N[C@@H](Cc1c[nH]cn1)C(=O)N[C@@H](CO)C(=O)N[C@@H](C)C(=O)N[C@@H](CCCCN)C(=O)N[C@@H](CCCCN)C(=O)N[C@@H](Cc1ccccc1)C(=O)NCC(=O)N[C@@H](CCCCN)C(=O)N[C@@H](C)C(=O)N[C@@H](Cc1ccccc1)C(=O)N[C@H](C(=O)NCC(=O)N[C@@H](CCC(=O)O)C(=O)N[C@H](C(=O)N[C@@H](CCSC)C(=O)N[C@@H](CC(N)=O)C(=O)N[C@@H](CO)C(=O)O)[C@@H](C)CC)C(C)C [Magainin 2] (H-GIGKFLHSAKKFGKAFVGEIMNS-OH; N-terminus and C-terminus assumed)
MIC E. coli (Escherichia coli; 24 h): 64 µg/mL (≈ 25.9 µM)
MIC B. cereus (B. cereus; 24 h): 256 µg/mL (≈ 104 µM)

CC[C@H](C)[C@H](NC(=O)CN)C(=O)NCC(=O)N[C@@H](C)C(=O)N[C@H](C(=O)N[C@@H](CC(C)C)C(=O)N[C@@H](CCCCN)C(=O)N[C@H](C(=O)N[C@@H](CC(C)C)C(=O)N[C@H](C(=O)N[C@H](C(=O)NCC(=O)N[C@@H](CC(C)C)C(=O)N1CCC[C@H]1C(=O)N[C@@H](C)C(=O)N[C@@H](CC(C)C)C(=O)N[C@H](C(=O)N[C@@H](CO)C(=O)N[C@@H](Cc1c[nH]c2ccccc12)C(=O)N[C@H](C(=O)N[C@@H](CCCCN)C(=O)N[C@@H](CCCNC(=N)N)C(=O)N[C@@H](CCCCN)C(=O)N[C@@H](CCCNC(=N)N)C(=O)N[C@@H](CCC(N)=O)C(=O)N[C@@H](CCC(N)=O)C(N)=O)[C@@H](C)CC)[C@@H](C)CC)[C@@H](C)O)[C@@H](C)O)C(C)C)C(C)C [Melittin]
MIC B. cereus (B. cereus; 24 h): 8 µg/mL (≈ 2.81 µM)

CC(C)[C@H](N)C(=O)N[C@H](C(=O)N[C@@H](Cc1ccccc1)C(=O)N[C@@H](CCCNC(=N)N)C(=O)N[C@H](C(=O)N[C@@H](C)C(=O)N[C@@H](CO)C(=O)N[C@@H](CCCCN)C(=O)N[C@H](C(=O)N[C@@H](Cc1ccccc1)C(=O)N1CCC[C@H]1C(=O)N[C@@H](C)C(=O)N[C@H](C(=O)N[C@@H](Cc1ccc(O)cc1)C(=O)N[C@@H](CS)C(=O)N[C@H](C(=O)N[C@H](C(=O)N[C@@H](CO)C(=O)N[C@@H](CCCCN)C(=O)N[C@@H](CCCCN)C(=O)O)C(C)C)[C@@H](C)O)C(C)C)C(C)C)C(C)C)C(C)C [Peptide 2] (H-VVFRVASKVFPAVYCTVSKK-OH; N-terminus and C-terminus assumed)
MIC E. coli (Escherichia coli; 24 h): 128 µg/mL (≈ 57.4 µM)
MIC B. cereus (B. cereus; [1]): + (MIC greater than 256 ug/mL)

CC[C@H](C)[C@H](NC(=O)[C@H](CC(=O)O)NC(=O)[C@H](CCCCN)NC(=O)[C@@H](NC(=O)[C@H](CC(C)C)NC(=O)[C@H](CO)NC(=O)[C@H](CCSC)NC(=O)[C@H](CC(C)C)NC(=O)CN)C(C)C)C(=O)N[C@@H](C)C(=O)N[C@@H](CCCCN)C(=O)N[C@@H](CC(C)C)C(=O)N[C@@H](C)C(=O)N[C@@H](C)C(=O)N[C@@H](CCCCN)C(=O)N[C@@H](CCC(N)=O)C(=O)NCC(=O)N[C@@H](C)C(=O)N[C@@H](CCCCN)C(=O)N[C@@H](CCC(N)=O)C(=O)O [Peptide 9] (H-GLMSLVKDIAKLAAKQGAKQ-OH; N-terminus and C-terminus assumed)
MIC E. coli (Escherichia coli; 24 h): 256 µg/mL (≈ 124 µM)
MIC B. cereus (B. cereus; [1]): + (MIC greater than 256 ug/mL)

CC[C@H](C)[C@H](NC(=O)[C@@H](NC(=O)[C@H](CS)NC(=O)[C@H](Cc1ccc(O)cc1)NC(=O)[C@@H](NC(=O)[C@H](C)NC(=O)[C@@H]1CCCN1C(=O)[C@H](Cc1ccccc1)NC(=O)[C@@H](NC(=O)[C@H](CCCCN)NC(=O)[C@H](CO)NC(=O)[C@H](C)NC(=O)[C@H](CC(C)C)NC(=O)[C@H](CCCCN)NC(=O)CNC(=O)[C@H](CC(C)C)NC(=O)[C@H](C)N)C(C)C)C(C)C)[C@@H](C)O)C(=O)N[C@@H](CO)C(=O)N[C@@H](CCCNC(=N)N)C(=O)N[C@@H](CCCCN)C(=O)O [Peptide 23] (H-ALGKLASKVFPAVYCTISRK-OH; N-terminus and C-terminus assumed)
MIC E. coli (Escherichia coli; 24 h): 128 µg/mL (≈ 59.5 µM)
MIC B. cereus (B. cereus; [1]): + (MIC greater than 256 ug/mL)

CC[C@H](C)[C@H](NC(=O)[C@H](Cc1ccccc1)NC(=O)CN)C(=O)NCC(=O)N[C@@H](CCCCN)C(=O)N[C@@H](CC(C)C)C(=O)N[C@@H](C)C(=O)N[C@@H](CO)C(=O)N[C@@H](CCCCN)C(=O)N[C@H](C(=O)N[C@H](C(=O)N1CCC[C@H]1C(=O)N[C@@H](CO)C(=O)N[C@H](C(=O)N[C@@H](Cc1ccc(O)cc1)C(=O)N[C@@H](CS)C(=O)N[C@@H](CCCCN)C(=O)N[C@H](C(=O)N[C@H](C(=O)NCC(=O)O)[C@@H](C)O)C(C)C)C(C)C)C(C)C)C(C)C [Peptide 24] (H-GFIGKLASKVVPSVYCKVTG-OH; N-terminus and C-terminus assumed)
MIC E. coli (Escherichia coli; 24 h): 128 µg/mL (≈ 62.3 µM)
MIC B. cereus (B. cereus; [1]): + (MIC greater than 256 ug/mL)

From patent US7739055B2, “Methods and systems for generating and evaluating peptides” (priority 2005, dated 2010)
